How the values were obtained:
[1] = tested on: murine bone marrow-derived macrophages; experiment: area under cytotoxicity dose-response curve (AUC (% cytotoxicity x dose, relative)); higher = more cytotoxic; settings: duration: 6 days; dose range: 0.13-80 uM, 8 points
In short: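 Values are the area under the cytotoxicity dose–response curve, calculated with GraphPad Prism version 10. Primary murine bone marrow-derived macrophages were exposed to final concentrations of 80–0.13 μM for 6 days, and viability was read by CellTiter-Glo luminescence with normalisation to vehicle and positive control wells.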

[2] = tested on: Mycobacterium tuberculosis CDC1551 (intracellular, in murine BMDM); experiment: area under intracellular growth-inhibition dose-response curve (AUC (% inhibition x dose, relative)); higher = more potent; settings: duration: 6 days; dose range: 0.13-80 uM, 8 points
In short: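 The value is the area under the growth-inhibition dose–response curve, calculated in GraphPad Prism. Primary murine bone marrow-derived macrophages were seeded in 384-well opaque plates and, 24 h later, infected for 1 h with luciferase-expressing M. tuberculosis CDC1551 at multiplicity of infection 1. Cells were then exposed for 6 days to an 8-dose, 2.5-fold series (final 80–0.13 μM). Growth was read with the Bright-Glo luciferin assay and normalised to a reference drug control and to the lowest-concentration wells.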

Cc1ccc(C(=O)NC(C)C2CC3CCC2C3)cc1 (centres undefined)
area under cytotoxicity dose-response curve [1]: < 0
area under intracellular growth-inhibition dose-response curve [2]: 267

CN(C)c1ccc(/C=N/CC2(O)CCOC(C)(C)C2)cc1 (centres undefined)
area under cytotoxicity dose-response curve [1]: 103
area under intracellular growth-inhibition dose-response curve [2]: 1.75

O=[N+]([O-])c1nn(-c2ccc(Cl)cc2)[n+]([O-])c1NCc1ccncc1
area under cytotoxicity dose-response curve [1]: 11.5
area under intracellular growth-inhibition dose-response curve [2]: 30.7

O=C(N/N=C/C=C\c1ccccc1[N+](=O)[O-])c1ccncc1
area under cytotoxicity dose-response curve [1]: 5.73
area under intracellular growth-inhibition dose-response curve [2]: 260

CCN(C(=O)COC(=O)c1nc(Cl)ccc1Cl)c1c(N)n(Cc2ccccc2)c(=O)[nH]c1=O
area under cytotoxicity dose-response curve [1]: 73
area under intracellular growth-inhibition dose-response curve [2]: 28.6

CN(CC(=O)Nc1ccccc1Br)C(=O)c1ccccc1Sc1ccccc1C#N
area under cytotoxicity dose-response curve [1]: 24.4
area under intracellular growth-inhibition dose-response curve [2]: 45.3

C/C(CC(=O)NCCN1CCOCC1)=N\NC(=O)c1ccncc1
area under cytotoxicity dose-response curve [1]: 12.5
area under intracellular growth-inhibition dose-response curve [2]: 206

Cc1nc(SCC(=O)NC2CCCCC2)nc(O)c1C
area under cytotoxicity dose-response curve [1]: 17.5
area under intracellular growth-inhibition dose-response curve [2]: 30.2

Cc1cc(=O)c2cc(Br)ccc2n1CC(=O)NCc1ccccc1
area under cytotoxicity dose-response curve [1]: 41.6
area under intracellular growth-inhibition dose-response curve [2]: 233

CNC[C@H](Cc1ccccc1)NC[C@@H](Cc1cccc2ccccc12)NCCc1ccc(C)cc1
area under cytotoxicity dose-response curve [1]: 108
area under intracellular growth-inhibition dose-response curve [2]: 53.8

COc1ccccc1C(CNC(=O)CN1C(=O)NC(C)(c2ccc3ccccc3c2)C1=O)N1CCCC1 (centres undefined)
area under cytotoxicity dose-response curve [1]: 44.4
area under intracellular growth-inhibition dose-response curve [2]: 93.4

CN(CC(=O)Nc1ccc(OC(F)(F)F)cc1)C(=O)c1ccc(N2CCCC2=O)cc1
area under cytotoxicity dose-response curve [1]: 36.3
area under intracellular growth-inhibition dose-response curve [2]: 27.6

Cc1oc(-c2cccs2)nc1CSCC(=O)N1CCC2(CC1)OCCO2
area under cytotoxicity dose-response curve [1]: 37.4
area under intracellular growth-inhibition dose-response curve [2]: 48.9

Cc1ccc(C2=NN(C(=O)CCl)C(c3cccs3)C2)o1 (centres undefined)
area under cytotoxicity dose-response curve [1]: 25.9
area under intracellular growth-inhibition dose-response curve [2]: 105

CC(C)(C)C(=O)/C(=C/c1ccncc1)n1cncn1
area under cytotoxicity dose-response curve [1]: 106
area under intracellular growth-inhibition dose-response curve [2]: 32

NC(=S)N/N=C/c1ccc(-c2ccc([N+](=O)[O-])cc2)o1
area under cytotoxicity dose-response curve [1]: < 0
area under intracellular growth-inhibition dose-response curve [2]: 217

NS(=O)(=O)c1cccc(NC(=O)COC(=O)c2ccc(S(=O)(=O)N3CCOCC3)cc2)c1
area under cytotoxicity dose-response curve [1]: 10
area under intracellular growth-inhibition dose-response curve [2]: 112

O=C(N/N=C/c1ccc2c(c1)OCCO2)c1ccncc1
area under cytotoxicity dose-response curve [1]: 66.5
area under intracellular growth-inhibition dose-response curve [2]: 124

Cn1c(NC(=S)Nc2ccccc2)nc2ccccc21
area under cytotoxicity dose-response curve [1]: 55.9
area under intracellular growth-inhibition dose-response curve [2]: 206

CC(NC(=O)c1cc2ccccc2o1)c1cccs1 (centres undefined)
area under cytotoxicity dose-response curve [1]: < 0
area under intracellular growth-inhibition dose-response curve [2]: 257

CCCCCCNC(=O)c1ccc(Br)o1
area under cytotoxicity dose-response curve [1]: < 0
area under intracellular growth-inhibition dose-response curve [2]: 225

O=C(CC12CC3CC(CC(C3)C1)C2)NCc1ccco1
area under cytotoxicity dose-response curve [1]: 60.5
area under intracellular growth-inhibition dose-response curve [2]: 224

COc1ccc(NC(=O)CON=CC(=O)Nc2ccc(C)cc2)c(OC)c1
area under cytotoxicity dose-response curve [1]: 7
area under intracellular growth-inhibition dose-response curve [2]: 38.9

NC(=S)N/N=C1\CCOc2ccc(F)cc21
area under cytotoxicity dose-response curve [1]: < 0
area under intracellular growth-inhibition dose-response curve [2]: 232

C=CCOc1ccc(/C=N\NC(N)=S)cc1
area under cytotoxicity dose-response curve [1]: 10.8
area under intracellular growth-inhibition dose-response curve [2]: 276

O=C1CN(C(=O)COC(=O)c2c(F)cccc2Cl)c2ccccc2N1
area under cytotoxicity dose-response curve [1]: < 0
area under intracellular growth-inhibition dose-response curve [2]: 148

N#Cc1ccc(NCC(=O)N2CCN(S(=O)(=O)c3ccccc3)CC2)cc1
area under cytotoxicity dose-response curve [1]: < 0
area under intracellular growth-inhibition dose-response curve [2]: 56.7

Source: the supplement of paper PMC11997997
